# Reference: US20100316529A1, “Anti-Microbial Systems and Methods” (priority 2001, published 2010)
# Values joined by “and” are separate entries in the source; they are usually repeats but may differ in a detail not shown here. Equal values may be shown once.
# Legend:
# Coryneform strait/amy = assay: EDTA salt dilution test, MIC/MBC; assay type: cell-based
# Ent. cloacae = assay: EDTA salt dilution test, MIC/MBC; assay type: cell-based; details: three entries
# C. lucitaniae = assay: EDTA agar dilution method, yeasts, MIC/MBC; assay type: cell-based; details: Exhibit C
# From the text: (§1) Protocol 3: Agar dilutions.
# Do this until all the media is used up.
# Ent. faeculm = assay: EDTA salt dilution test, MIC/MBC; assay type: cell-based
# Proteus vulgaris = assay: EDTA salt dilution test, MIC/MBC; assay type: cell-based
# S. aureus = assay: EDTA salt dilution test, MIC/MBC; assay type: cell-based; details: five entries, Exhibit A2
# Kleb. pnemoniae = assay: EDTA salt dilution test, MIC/MBC; assay type: cell-based; details: two entries
# S. epidermidis = assay: EDTA salt dilution test, MIC/MBC; assay type: cell-based; details: two entries
# VRE = assay: EDTA salt dilution test, MIC/MBC; assay type: cell-based; details: two entries
# S. capitis = assay: EDTA salt dilution test, MIC/MBC; assay type: cell-based; details: two entries, Exhibit A2
# S. lentus = assay: EDTA salt dilution test, MIC/MBC; assay type: cell-based
# Pseudomonas aeruginosa = assay: EDTA salt dilution test, MIC/MBC; assay type: cell-based; details: two entries
# S. xylosus = assay: EDTA salt dilution test, MIC/MBC; assay type: cell-based
# Ent. faecalis = assay: EDTA salt dilution test, MIC/MBC; assay type: cell-based
# Pseudomonas sp. = assay: EDTA salt dilution test, MIC/MBC; assay type: cell-based
# Proteus mirabilis = assay: EDTA salt dilution test, MIC/MBC; assay type: cell-based; details: two entries
# S. simulans = assay: EDTA salt dilution test, MIC/MBC; assay type: cell-based
# MRSA = assay: EDTA salt dilution test, MIC/MBC; assay type: cell-based; details: five entries, Exhibit A2
# Kleb. oxytoca = assay: EDTA salt dilution test, MIC/MBC; assay type: cell-based
# Steno. maltophilia = assay: EDTA salt dilution test, MIC/MBC; assay type: cell-based
# Kleb. ornitholytica = assay: EDTA salt dilution test, MIC/MBC; assay type: cell-based
# C. guilliermondii = assay: EDTA agar dilution method, yeasts, MIC/MBC; assay type: cell-based; details: Exhibit C
# Experimental: (§2) The bactericidal effects were measured as the Minimum Bactericidal Concentration (MBC), while the inhibitory effects were measured as the Minimum Inhibitory Concentration (MIC). In each case, the concentration was measured as milligrams of the disinfectant salt per milliliter of water (mg/ml).
# as §1
# (§3) Prepare nutrient agar plates with increasing concentrations of EDTA, 0, 0.5, 1, 1.5, 2, 4, 6, 8, 10, 15, 20, 25, 30 mg/mL, using the following method. • Pour 300 mL distilled water into a sterile glass bottle. • Add the appropriate amount of EDTA. This is the concentration desired ×300, in grams. • Once the EDTA has fully dissolved, add 8.4 g of Nutrient agar powder (Oxoid). Mix thoroughly. • Do this for each concentration of EDTA required. […] Do this until all the media is used up. Label the plates with the concentration of EDTA they contain. • These plates can then be stored, until they are needed, in a 4° C. fridge. • Use an automatic plate inoculator to inoculate each plate with 21 organisms.
# C. glabrata = assay: EDTA agar dilution method, yeasts, MIC/MBC; assay type: cell-based; details: two entries, Exhibit C
# Experimental: as §2, §1, §3
# C. tropicalis = assay: EDTA agar dilution method, yeasts, MIC/MBC; assay type: cell-based; details: Exhibit C
# Experimental: as §2, §1, §3
# C. albicans = assay: EDTA agar dilution method, yeasts, MIC/MBC; assay type: cell-based; details: three entries, Exhibit C
# Experimental: as §2, §1, §3
# C. parapsilosis = assay: EDTA agar dilution method, yeasts, MIC/MBC; assay type: cell-based; details: Exhibit C
# Experimental: as §2, §1, §3
# Acinetobacter baumanii = assay: EDTA salt dilution test, MIC/MBC; assay type: cell-based; details: two entries, Exhibit A2
# Cornyeform amycolatum = assay: EDTA salt dilution test, MIC/MBC; assay type: cell-based
structure (smiles),measurement,setting,value
O=C([O-])CN(CCN(CC(=O)[O-])CC(=O)[O-])CC(=O)[O-].[Na+].[Na+].[Na+].[Na+] [Tetrasodium EDTA],"MBC, minimum concentration required to kill an entire population",Coryneform strait/amy; Exhibit A1,<500 µg/mL
same,"MIC, minimum concentration required to inhibit growth",Coryneform strait/amy; Exhibit A2,<500 µg/mL
same,"MBC, minimum concentration required to kill an entire population",Ent. cloacae; Exhibit A1,20000 µg/mL
same,"MIC, minimum concentration required to inhibit growth",Ent. cloacae; Exhibit A2,8000 µg/mL and 10000 µg/mL
same,"MBC's, Minimum Bactericidal Concentration",C. lucitaniae,6000 µg/mL
same,"MIC's, Minimum Inhibitory Concentration",C. lucitaniae,500 µg/mL
same,"MIC, minimum concentration required to inhibit growth","Ent. faeculm; Ent. faecuim, Exhibit A2",<500 µg/mL
same,"MBC, minimum concentration required to kill an entire population","Ent. faeculm; Ent. faeculm, Exhibit A1",>30000 µg/mL
same,"MBC, minimum concentration required to kill an entire population",Proteus vulgaris; Exhibit A1,20000 µg/mL
same,"MIC, minimum concentration required to inhibit growth",Proteus vulgaris; Exhibit A2,4000 µg/mL
same,"MIC, minimum concentration required to inhibit growth",S. aureus,<500 µg/mL and 1000 µg/mL
same,"MBC, minimum concentration required to kill an entire population",Kleb. pnemoniae; Exhibit A1,15000 µg/mL
same,"MIC, minimum concentration required to inhibit growth",Kleb. pnemoniae; Exhibit A2,8000 µg/mL and 4000 µg/mL
same,"MBC, minimum concentration required to kill an entire population",S. epidermidis; Exhibit A1,1000 µg/mL and 2000 µg/mL
same,"MIC, minimum concentration required to inhibit growth",S. epidermidis; Exhibit A2,1000 µg/mL
same,"MBC, minimum concentration required to kill an entire population",VRE; Exhibit A1,15000 µg/mL and >30000 µg/mL
same,"MIC, minimum concentration required to inhibit growth",VRE; Exhibit A2,1000 µg/mL
same,"MIC, minimum concentration required to inhibit growth",S. capitis,1000 µg/mL and <500 µg/mL
same,"MBC, minimum concentration required to kill an entire population",S. lentus; Exhibit A1,30000 µg/mL
same,"MIC, minimum concentration required to inhibit growth",S. lentus; Exhibit A2,1000 µg/mL
same,"MBC, minimum concentration required to kill an entire population",Pseudomonas aeruginosa; Exhibit A1,20000 µg/mL
same,"MIC, minimum concentration required to inhibit growth",Pseudomonas aeruginosa; Exhibit A2,2000 µg/mL
same,"MBC, minimum concentration required to kill an entire population",S. xylosus; Exhibit A1,25000 µg/mL
same,"MIC, minimum concentration required to inhibit growth",S. xylosus; Exhibit A2,<500 µg/mL
same,"MBC, minimum concentration required to kill an entire population",Ent. faecalis; Exhibit A1,10000 µg/mL
same,"MIC, minimum concentration required to inhibit growth",Ent. faecalis; Exhibit A2,1000 µg/mL
same,"MBC, minimum concentration required to kill an entire population",Pseudomonas sp.; Exhibit A1,30000 µg/mL
same,"MIC, minimum concentration required to inhibit growth",Pseudomonas sp.; Exhibit A2,2000 µg/mL
same,"MBC, minimum concentration required to kill an entire population",Proteus mirabilis; Exhibit A1,20000 µg/mL
same,"MIC, minimum concentration required to inhibit growth",Proteus mirabilis; Exhibit A2,1000 µg/mL
same,"MBC, minimum concentration required to kill an entire population",S. simulans; Exhibit A1,30000 µg/mL
same,"MIC, minimum concentration required to inhibit growth",S. simulans; Exhibit A2,1000 µg/mL
same,"MIC, minimum concentration required to inhibit growth",MRSA,1000 µg/mL
same,"MBC, minimum concentration required to kill an entire population",Kleb. oxytoca; Exhibit A1,8000 µg/mL
same,"MIC, minimum concentration required to inhibit growth",Kleb. oxytoca; Exhibit A2,4000 µg/mL
same,"MBC, minimum concentration required to kill an entire population",Steno. maltophilia; Exhibit A1,4000 µg/mL
same,"MIC, minimum concentration required to inhibit growth",Steno. maltophilia; Exhibit A2,1000 µg/mL
same,MIC values compared with the other two EDTA compounds,variety of yeasts; Exhibit C,lower than the MIC values for the other two EDTA compounds
same,MBC values against yeasts compared with bacteria,variety of yeasts; Exhibit C versus Gram negative and Gram positive organisms,comparable to the MBC values for the Gram negative and Gram positive organisms
same,"MBC, minimum concentration required to kill an entire population",Kleb. ornitholytica; Exhibit A1,30000 µg/mL
same,"MIC, minimum concentration required to inhibit growth",Kleb. ornitholytica; Exhibit A2,4000 µg/mL
same,"MBC's, Minimum Bactericidal Concentration",C. guilliermondii,500 µg/mL
same,"MIC's, Minimum Inhibitory Concentration",C. guilliermondii,500 µg/mL
same,"MIC's, Minimum Inhibitory Concentration",C. glabrata,500 µg/mL
same,"MBC's, Minimum Bactericidal Concentration",C. tropicalis,10000 µg/mL
same,"MIC's, Minimum Inhibitory Concentration",C. tropicalis,500 µg/mL
same,"MIC's, Minimum Inhibitory Concentration",C. albicans,500 µg/mL
same,"MBC's, Minimum Bactericidal Concentration",C. parapsilosis,8000 µg/mL
same,"MIC's, Minimum Inhibitory Concentration",C. parapsilosis,500 µg/mL
same,"MIC, minimum concentration required to inhibit growth",Acinetobacter baumanii,<500 µg/mL and 1000 µg/mL
same,"MBC, minimum concentration required to kill an entire population",Cornyeform amycolatum; Exhibit A1,<500 µg/mL
same,"MIC, minimum concentration required to inhibit growth",Cornyeform amycolatum; Exhibit A2,<500 µg/mL
